Data reported in ChEMBL document CHEMBL1201862, “PubChem BioAssay data set” (2004).
Calls of active or inactive are those of the source. No stated cut-off is given here; in the data, actives have a measured IC50 and inactives only a lower limit.

Target: Envelope glycoprotein gp160 (Human immunodeficiency virus 1, UniProt Q6QLK5)
Assay: inhibitors of HIV fusion peptide binding, primary screen, biochemical, uHTS, fluorescence dequenching (AID 1986)

Chain of Envelope glycoprotein gp160 (Q6QLK5 whole entry, the tested form may be a part): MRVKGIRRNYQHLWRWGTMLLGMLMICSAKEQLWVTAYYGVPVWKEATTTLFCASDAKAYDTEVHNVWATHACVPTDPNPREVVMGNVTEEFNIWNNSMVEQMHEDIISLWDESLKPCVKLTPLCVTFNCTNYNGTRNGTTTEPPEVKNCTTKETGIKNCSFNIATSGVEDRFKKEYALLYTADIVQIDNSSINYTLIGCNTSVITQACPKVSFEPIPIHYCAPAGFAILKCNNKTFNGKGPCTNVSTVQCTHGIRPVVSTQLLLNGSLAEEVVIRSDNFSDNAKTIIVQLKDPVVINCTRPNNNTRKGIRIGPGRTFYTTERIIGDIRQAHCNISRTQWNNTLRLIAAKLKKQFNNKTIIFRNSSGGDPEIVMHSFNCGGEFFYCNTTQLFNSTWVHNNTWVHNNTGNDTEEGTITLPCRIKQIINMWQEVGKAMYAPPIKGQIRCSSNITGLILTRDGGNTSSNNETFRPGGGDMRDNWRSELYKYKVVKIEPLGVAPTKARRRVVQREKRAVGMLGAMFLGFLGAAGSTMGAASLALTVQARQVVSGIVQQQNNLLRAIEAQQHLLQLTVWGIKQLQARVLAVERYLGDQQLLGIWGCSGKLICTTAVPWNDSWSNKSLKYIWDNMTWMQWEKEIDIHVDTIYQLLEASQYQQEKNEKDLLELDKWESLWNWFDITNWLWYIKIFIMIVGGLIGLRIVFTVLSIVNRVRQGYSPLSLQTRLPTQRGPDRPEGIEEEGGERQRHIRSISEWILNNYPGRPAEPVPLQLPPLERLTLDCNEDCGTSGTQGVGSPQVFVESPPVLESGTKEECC

**Q.** For Cc1cc(Cl)ccc1OC(C)C(=O)Nc1ccc(S(=O)(=O)Nc2cnc3ccccc3n2)cc1 (stereo unspecified), which IC50 is on record?
**A.** 21.3 µM (active)
